Patent publication US8791267B2, “Biaryl PDE4 inhibitors for treating inflammatory, cardiovascular and CNS disorders” (Decode Genetics EHF, priority 2007, dated 2014)
Structures can show the parent of a compound that is named as a salt.

biological target: PDE4 (Homo sapiens, UniProt Q08499); assay: In-vitro assay for PDE4 enzymes, real-time enzyme-coupled spectrophotometric assay (Table 9); assay type: biochemical; conditions: human PDE4D; activity class, Table 9; read-out: hPDE4D
Sequence (Q08499 whole entry): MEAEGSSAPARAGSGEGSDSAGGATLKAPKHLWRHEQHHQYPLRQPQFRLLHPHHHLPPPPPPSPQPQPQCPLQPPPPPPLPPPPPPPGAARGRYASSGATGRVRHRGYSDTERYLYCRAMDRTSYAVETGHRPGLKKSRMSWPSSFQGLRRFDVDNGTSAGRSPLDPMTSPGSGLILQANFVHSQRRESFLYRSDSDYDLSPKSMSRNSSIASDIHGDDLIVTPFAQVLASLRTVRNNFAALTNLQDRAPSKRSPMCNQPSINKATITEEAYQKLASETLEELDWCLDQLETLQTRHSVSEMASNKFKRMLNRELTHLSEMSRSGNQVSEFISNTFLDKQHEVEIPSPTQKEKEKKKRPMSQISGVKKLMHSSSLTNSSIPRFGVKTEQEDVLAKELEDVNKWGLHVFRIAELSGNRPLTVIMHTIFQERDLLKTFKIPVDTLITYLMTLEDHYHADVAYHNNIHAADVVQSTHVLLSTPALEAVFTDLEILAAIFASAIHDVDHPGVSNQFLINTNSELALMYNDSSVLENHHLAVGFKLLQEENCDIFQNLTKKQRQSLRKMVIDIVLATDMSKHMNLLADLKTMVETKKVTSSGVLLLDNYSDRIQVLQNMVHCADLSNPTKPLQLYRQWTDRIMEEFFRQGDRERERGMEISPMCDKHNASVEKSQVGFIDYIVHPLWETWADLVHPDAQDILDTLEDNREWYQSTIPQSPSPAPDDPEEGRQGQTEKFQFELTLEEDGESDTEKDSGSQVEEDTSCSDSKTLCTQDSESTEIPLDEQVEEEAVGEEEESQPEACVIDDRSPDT

`COc1ccc(COc2ccnc(N3CCCC3)c2)cc1-c1cccc(Cl)c1` [P-607] and `COc1ccc(COc2ccnc(N3CCCC3)c2)c(F)c1-c1cccc(Cl)c1` [P-608] cannot be ordered by IC50: < 5 µM for the first, < 5 µM for the second.

`NC(=O)Nc1ccc(Cc2ccc(OC3CNC3)c(-c3cccc(Cl)c3)c2)cc1` [P-554, {4-[6-(Azetidin-3-yloxy)-3′-chloro-biphenyl-3-ylmethyl]-phenyl}-urea] and `CN1CC[C@H](Oc2ccc(Cc3ccc(NC(N)=O)cc3)cc2-c2cccc(Cl)c2)C1` [P-556] fall in the same range of IC50: 5 to 20 µM for the first, 5 to 20 µM for the second.

`CC(=O)Nc1ccc(NCc2ccc(O)c(-c3cccc(Cl)c3)c2F)cc1` [P-203, N-{4-[(3′-Chloro-2-fluoro-6-hydroxy-biphenyl-3-ylmethyl)-amino]-phenyl}-acetamide] and `COc1ccc(COc2ccc(NC(N)=O)cc2)c(F)c1-c1cccc(Cl)c1` [P-589] cannot be ordered by IC50: < 5 µM for the first, < 5 µM for the second.

`COc1ccc(Cc2ccc(C(C)(C)N)nc2)c(F)c1-c1cccc(Cl)c1` [P-595, 1-[5-(3′-Chloro-2-fluoro-6-methoxy-biphenyl-3-ylmethyl)-pyridin-2-yl]-1-methyl-ethylamine] and `COc1ccc(Cc2ccc(N3CCC[C@H]3C(C)(C)O)nc2)c(F)c1-c1cccc(Cl)c1` [P-581, 2-{(S)-1-[5-(3′-chloro-2-fluoro-6-methoxy-biphenyl-3-ylmethyl)-pyridin-2-yl]-pyrrolidin-2-yl}-propan-2-ol] cannot be ordered by IC50: < 5 µM for the first, < 5 µM for the second.

First: COc1ccc(C=Cc2ccc(F)cc2)c(F)c1-c1cccc(Cl)c1 [P-418]
Second: COc1ccc(Cc2ccc(F)cc2)c(F)c1-c1cccc(N)c1 [P-098]
The IC50 of the first is higher: 5 to 20 µM for the first, < 5 µM for the second.

First: COc1ccc(CN2CCOCC2)nc1-c1cccc([N+](=O)[O-])c1 [P-026, 4-[5-methoxy-6-(3-nitro-phenyl)-pyridin-2-ylmethyl]-morpholine]
Second: COc1ccc(CN2CCC[C@@H]2CO)cc1-c1cccc([N+](=O)[O-])c1 [P-493, [(R)-1-(6-Methoxy-3′-nitro-biphenyl-3-ylmethyl)-pyrrolidin-2-yl]-methanol]
The IC50 of the first is lower: 5 to 20 µM for the first, 20 to 40 µM for the second. The first is the more potent here.

`COc1ccc(COc2cccc(N)c2)c(F)c1-c1cccc(Cl)c1` [P-232] and `COc1ccc(COc2cccc(NC(C)=O)c2)c(F)c1-c1cccc(Cl)c1` [P-231] cannot be ordered by IC50: < 5 µM for the first, < 5 µM for the second.

Compared with `COc1ccc(Cn2cncn2)cc1-c1ccc2[nH]ccc2c1` [P-486, 5-(2-Methoxy-5-[1,2,4]triazol-1-ylmethyl-phenyl)-1H-indole], `COc1ccc(Cn2cncn2)cc1-c1cccc([N+](=O)[O-])c1` [P-005] is lower in IC50: 20 to 40 µM for the first, < 5 µM for the second.

`COc1ccc(Cc2ccc(N3CCOCC3)nc2)cc1-c1cccc(Cl)c1` [P-572, 4-[5-(3′-chloro-6-methoxy-biphenyl-3-ylmethyl)-pyridin-2-yl]-morpholine] and `COc1ccc(Cc2ccc(N3CCC(O)C3)nc2)cc1-c1cccc(Cl)c1` (stereo not shown) [P-602, 1-[5-(3′-chloro-6-methoxy-biphenyl-3-ylmethyl)-pyridin-2-yl]-pyrrolidin-3-ol] cannot be ordered by IC50: < 5 µM for the first, < 5 µM for the second.

Compared with `COc1ccc(Cc2ccc(F)cc2)cc1-n1cc(-c2ccncc2)cn1` [P-389, 4-{1-[5-(4-Fluoro-benzyl)-2-methoxy-phenyl]-1H-pyrazol-4-yl}-pyridine], `COc1ccc(Cc2ccc(F)cc2)cc1-c1cccc(Cl)n1` [P-391, 2-Chloro-6-[5-(4-fluoro-benzyl)-2-methoxy-phenyl]-pyridine] is lower in IC50: 5 to 20 µM for the first, < 5 µM for the second. The second is the more potent here.

Compared with `COc1ccc(COc2ccc(N3CCC3)nc2)c(F)c1-c1cccc(Cl)c1` [P-586], `COc1ccc(Cc2ccc(N3CCNCC3)nc2)c(F)c1-c1cccc(Cl)c1` [P-423, 1-[5-(3′-chloro-2-fluoro-6-methoxy-biphenyl-3-ylmethyl)-pyridin-2-yl]-piperazine] is higher in IC50: < 5 µM for the first, 5 to 20 µM for the second. The first is the more potent here.

`COc1ccc(Cc2ccc(N3[C@@H](C)CC[C@@H]3C)nc2)c(F)c1-c1cccc(Cl)c1` [P-577, 5-(3′-Chloro-2-fluoro-6-methoxy-biphenyl-3-ylmethyl)-2-((2S,5S)-2,5-dimethyl-pyrrolidin-1-yl)-pyridine] and `COc1ccc(Cc2ccc(N3CCOCC3)nc2)c(F)c1-c1cccc(Cl)c1` [P-377] cannot be ordered by IC50: < 5 µM for the first, < 5 µM for the second.

`CN(C)CC(=O)Nc1ccc(Cc2ccc(OC(F)F)c(-c3cccc(Cl)c3)c2)cn1` [P-618, N-[5-(3′-Chloro-6-difluoromethoxy-biphenyl-3-ylmethyl)-pyridin-2-yl]-2-dimethylamino-acetamide hydrochloride] and `COc1ccc(Cc2ccc(NC(=O)CN(C)C)cc2)c(F)c1-c1cccc(Cl)c1` [P-238, N-[4-(3′-chloro-2-fluoro-6-methoxy-biphenyl-3-ylmethyl)-phenyl]-2-dimethylamino-acetamide] cannot be ordered by IC50: < 5 µM for the first, < 5 µM for the second.

Compared with `[2H]C(O)(c1ccc(NC(N)=O)cc1)c1ccc(OC)c(-c2cccc(Cl)c2)c1` (stereo not shown) [P-584], `COc1ccc(Nc2ccc(NC(N)=O)cc2)cc1-c1cccc(Cl)c1` [P-294, [4-(3′-Chloro-6-methoxy-biphenyl-3-ylamino)-phenyl]-urea] is lower in IC50: 5 to 20 µM for the first, < 5 µM for the second. The second is the more potent here.

`[2H]C(O)(c1ccc(N)cc1)c1ccc(OC)c(-c2cccc(Cl)c2)c1F` (stereo not shown) [P-538, deutero-(4-amino-phenyl)-(3′-chloro-2-fluoro-6-methoxy-biphenyl-3-yl)-methanol] and `COc1ccc(Cc2ccc(NC(=O)CN)cc2)c(F)c1-c1cccc(Cl)c1` [P-273] cannot be ordered by IC50: < 5 µM for the first, < 5 µM for the second.

Compared with `COc1ccc(Cn2cncn2)cc1-c1cccc(S(C)(=O)=O)c1` [P-495, 1-(3′-Methanesulfonyl-6-methoxy-biphenyl-3-ylmethyl)-1H-[1,2,4]triazole], `COc1ccc(Cn2cncn2)nc1-c1cccc(C(F)(F)F)c1` [P-064, 3-methoxy-6-[1,2,4]triazol-1-ylmethyl-2-(3-trifluoromethyl-phenyl)-pyridine] is lower in IC50: 20 to 40 µM for the first, 5 to 20 µM for the second.

First: COc1ccc(Cc2cccc(NS(C)(=O)=O)c2)cc1-c1cccc(Cl)c1 [P-271, N-[3-(3′-Chloro-6-methoxy-biphenyl-3-ylmethyl)-phenyl]-methanesulfonamide]
Second: CNc1ccc(Cc2ccc(OC)c(-c3cccc(Cl)c3)c2)cc1 [P-476, [4-(3′-Chloro-6-methoxy-biphenyl-3-ylmethyl)-phenyl]-methyl-amine hydrochloric acid]
The IC50 of the first is higher: 5 to 20 µM for the first, < 5 µM for the second.

`CNCC(=O)Nc1ccc(Cc2ccc(OC)c(-c3cccc(Cl)c3)c2F)cc1` [P-289] and `COc1ccc(Cc2ccc(NC(N)=O)cc2)c(F)c1-c1cccc(C(C)O)c1` (stereo not shown) [P-340, {4-[2-Fluoro-3′-(1-hydroxy-ethyl)-6-methoxy-biphenyl-3-ylmethyl]-phenyl}-urea] cannot be ordered by IC50: < 5 µM for the first, < 5 µM for the second.

`NC(=O)COc1ccc(Cc2ccc(NC(N)=O)cc2)cc1-c1cccc(Cl)c1` [P-557, 2-[3′-Chloro-5-(4-ureido-benzyl)-biphenyl-2-yloxy]-acetamide] and `CCNc1ccc(Cc2ccc(OC)c(-c3cccc(Cl)c3)c2)cc1` [P-247, [4-(3′-Chloro-6-methoxy-biphenyl-3-ylmethyl)-phenyl]-ethylamine; HCl salt] cannot be ordered by IC50: < 5 µM for the first, < 5 µM for the second.

Compared with `COc1ccc(Cc2ccc(F)cc2)cc1-c1cccc(N2CCOCC2)c1` [P-385, 4-[5′-(4-Fluoro-benzyl)-2′-methoxy-biphenyl-3-yl]-morpholine], `COc1ccc(Cc2ccc(F)cc2)cc1-c1ccc2c(c1)OCO2` [P-003, 5-[5-(4-Fluoro-benzyl)-2-methoxy-phenyl]-benzo[1,3]dioxole] is lower in IC50: 5 to 20 µM for the first, < 5 µM for the second. The second is the more potent here.

`COc1ccc(Cc2ccc(Nc3nccs3)cc2)cc1-c1cccc(Cl)c1` [P-454, [4-(3′-Chloro-6-methoxy-biphenyl-3-ylmethyl)-phenyl]-thiazol-2-yl-amine] and `CCNC(=O)Nc1ccc([S+]([O-])c2ccc(OC)c(-c3cccc(Cl)c3)c2)cc1` (stereo not shown) [P-449, 1-[4-(3′-Chloro-6-methoxy-biphenyl-3-sulfinyl)-phenyl]-3-ethyl urea] cannot be ordered by IC50: < 5 µM for the first, < 5 µM for the second.

`COc1ccc(Cc2ccc(NC(C)=O)cc2)c(F)c1-c1cccc(N2CCCC2)c1` [P-381, N-[4-(2-Fluoro-6-methoxy-3′-pyrrolidin-1-yl-biphenyl-3-ylmethyl)-phenyl]-acetamide] and `COc1ccc(Cc2ccc(F)cc2)c(OC)c1-c1cccc([N+](=O)[O-])c1` [P-097] cannot be ordered by IC50: < 5 µM for the first, < 5 µM for the second.

First: COc1ccc(Cc2ccccc2CNC=O)cc1-c1cccc([N+](=O)[O-])c1 [P-158, N-[2-(6-Methoxy-3′-nitro-biphenyl-3-ylmethyl)-benzyl]-formamide]
Second: COc1ccc(Cn2cnc3ccccc32)cc1-c1cccc([N+](=O)[O-])c1 [P-483, 1-(6-Methoxy-3′-nitro-biphenyl-3-ylmethyl)-1H-benzoimidazole]
The IC50 of the first is higher: 5 to 20 µM for the first, < 5 µM for the second. The second is the more potent here.

`CNC(=O)Cc1ccc(OC)c(-c2cccc([N+](=O)[O-])c2)c1` [P-027] and `COc1ccc(CO)c(O)c1-c1cccc([N+](=O)[O-])c1` [P-149] cannot be ordered by IC50: < 5 µM for the first, < 5 µM for the second.

`O=[N+]([O-])c1cccc(-c2cc(Cc3ccc(F)cc3)ccc2OC(F)(F)F)c1` [P-080, 5-(4-Fluoro-benzyl)-3′-nitro-2-trifluoromethoxy-biphenyl] and `COc1ccc(Cc2ccc(F)cc2)nc1-c1cccc(C(F)(F)F)c1` [P-065, 6-(4-fluoro-benzyl)-3-methoxy-2-(3-trifluoromethyl-phenyl)-pyridine] cannot be ordered by IC50: < 5 µM for the first, < 5 µM for the second.

Compared with `COCCOc1ccc(Cc2ccc(=O)n(CCOC)n2)cc1-c1cccc([N+](=O)[O-])c1` [P-018, 6-[6-(2-Methoxy-ethoxy)-3′-nitro-biphenyl-3-ylmethyl]-2-(2-methoxy-ethyl)-2H-pyridazin-3-one], `COc1ccc(-c2cc(Cc3ccc(F)cc3)ccc2OC)cc1C(C)=O` [P-170, 1-[5′-(4-Fluoro-benzyl)-4,2′-dimethoxy-biphenyl-3-yl]-ethanone] is lower in IC50: 5 to 20 µM for the first, < 5 µM for the second.

`COc1ccc(N(C)c2ccc(N)cc2)cc1-c1cccc(Cl)c1` [P-288, N-(3′-Chloro-6-methoxy-biphenyl-3-yl)-N-methyl-benzene-1,4-diamine; hydrochloride] and `COc1ccc(Cn2cc(-c3ccncc3)cn2)c(F)c1-c1cccc(Cl)c1` [P-528, 4-[1-(3′-Chloro-2-fluoro-6-methoxy-biphenyl-3-ylmethyl)-1H-pyrazol-4-yl]-pyridine] cannot be ordered by IC50: < 5 µM for the first, < 5 µM for the second.

In the case of `COc1ccc(Cc2ccc(CNS(C)(=O)=O)c(F)c2)c(F)c1-c1cccc(Cl)c1` [P-286], the IC50 is reported as < 5 µM.
